According to patent US11548870B2, “Compounds useful as inhibitors of helios protein” (Bristol-Myers Squibb Company, priority 2019, dated 2023):
Several values for one entry are separate records, joined by “and”; a condition that tells them apart may be missing. Identical values can stand only once. Like-named read-outs stand apart in the source and are kept apart here.

Experiments:
Ikaros = molecular target: T1, Ikaros (Homo sapiens, UniProt Q13422); assay: Helios Cellular Degradation Assay, Ikaros readout (flow cytometry, Ikaros-Alexa488 antibody staining, 72 h); assay type: cell-based; details: Jurkat cells, 72 h incubation, flow cytometry; for Dmax: Jurkat, read-out: Ikaros Dmax
T1 construct: fluorescently labelled antibodies against Helios and Ikaros; endogenous in cells; host or cells: Jurkat cells
Experimental: (§1) Helios Cellular Degradation Assay
(§2) Jurkat cells were plated at 80,000 cells/well in 40 μL RPMI+10% FBS in a 384 well cell culture plate prior to using acoustic dispensing technology for adding compound of interest. Cell cultures were incubated for 72 h at 37° C. and 5% CO2. In order to facilitate analysis, cell cultures were spun down at 200 rpm for 5 min and the supernatant was discarded. After shaking the plate to dislodge the cell pellet, cells were resuspended in 50 μL of Fixation Buffer (eBioScience FoxP3 buffer set 0000) for 60 min at room temperature. After centrifuging and discarding the supernatant, cells were permeabilized with 50 μL of Permeabilization buffer (eBioScience FoxP3 buffer set 00-5523-00) for 10 min at room temperature. Following permeabilization, cells were spun down and the supernatant was replaced with 20 μL fluorescently labelled antibodies against Helios and Ikaros or corresponding Isotype controls in 1× Permeabilization buffer (Ikaros-Alexa488 [Biolegend, Cat #368408, 1:50], Helios-PE [CST, Cat #29360, 1:50]) and staining reactions were incubated for 1 h at room temperature; protected from light. Subsequently, 30 μL of 1× Permeabilization buffer was added prior to centrifuging the cells and discarding the supernatant. Stained cells were resuspended in 25 μL of flow cytometry staining buffer (PBS+0.2% BSA) and analyzed using an Intellicyt Ique Plus flow cytometer.
as §2, with “00-5523-00)” for “0000)”

Helios = molecular target: T2, Helios (Homo sapiens, UniProt Q96SW2+Q9UKS7); assay: Helios Cellular Degradation Assay (flow cytometry, Helios-PE antibody staining, 72 h); assay type: cell-based; details: for Dmax: Jurkat, read-out: Helios Dmax
T2 construct: fluorescently labelled antibodies against Helios and Ikaros; endogenous in cells; host or cells: Jurkat cells
Experimental: as §1, §2
as §2, with “00-5523-00)” for “0000)”

[1] = Jurkat cells, 72 h incubation, flow cytometry

T1 sequence (Q96SW2 whole entry partner): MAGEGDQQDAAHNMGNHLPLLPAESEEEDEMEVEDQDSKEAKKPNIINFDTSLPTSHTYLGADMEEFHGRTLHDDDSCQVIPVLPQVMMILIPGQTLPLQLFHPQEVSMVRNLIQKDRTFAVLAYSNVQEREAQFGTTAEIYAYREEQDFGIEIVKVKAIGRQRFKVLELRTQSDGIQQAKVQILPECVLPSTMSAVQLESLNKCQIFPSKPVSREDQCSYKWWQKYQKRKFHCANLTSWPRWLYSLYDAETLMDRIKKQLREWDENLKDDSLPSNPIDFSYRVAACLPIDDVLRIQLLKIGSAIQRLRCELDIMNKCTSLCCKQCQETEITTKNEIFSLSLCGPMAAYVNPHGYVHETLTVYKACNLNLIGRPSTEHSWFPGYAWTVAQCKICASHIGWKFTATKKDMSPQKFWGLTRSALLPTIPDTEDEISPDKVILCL
T1 sequence (Q16531 whole entry partner): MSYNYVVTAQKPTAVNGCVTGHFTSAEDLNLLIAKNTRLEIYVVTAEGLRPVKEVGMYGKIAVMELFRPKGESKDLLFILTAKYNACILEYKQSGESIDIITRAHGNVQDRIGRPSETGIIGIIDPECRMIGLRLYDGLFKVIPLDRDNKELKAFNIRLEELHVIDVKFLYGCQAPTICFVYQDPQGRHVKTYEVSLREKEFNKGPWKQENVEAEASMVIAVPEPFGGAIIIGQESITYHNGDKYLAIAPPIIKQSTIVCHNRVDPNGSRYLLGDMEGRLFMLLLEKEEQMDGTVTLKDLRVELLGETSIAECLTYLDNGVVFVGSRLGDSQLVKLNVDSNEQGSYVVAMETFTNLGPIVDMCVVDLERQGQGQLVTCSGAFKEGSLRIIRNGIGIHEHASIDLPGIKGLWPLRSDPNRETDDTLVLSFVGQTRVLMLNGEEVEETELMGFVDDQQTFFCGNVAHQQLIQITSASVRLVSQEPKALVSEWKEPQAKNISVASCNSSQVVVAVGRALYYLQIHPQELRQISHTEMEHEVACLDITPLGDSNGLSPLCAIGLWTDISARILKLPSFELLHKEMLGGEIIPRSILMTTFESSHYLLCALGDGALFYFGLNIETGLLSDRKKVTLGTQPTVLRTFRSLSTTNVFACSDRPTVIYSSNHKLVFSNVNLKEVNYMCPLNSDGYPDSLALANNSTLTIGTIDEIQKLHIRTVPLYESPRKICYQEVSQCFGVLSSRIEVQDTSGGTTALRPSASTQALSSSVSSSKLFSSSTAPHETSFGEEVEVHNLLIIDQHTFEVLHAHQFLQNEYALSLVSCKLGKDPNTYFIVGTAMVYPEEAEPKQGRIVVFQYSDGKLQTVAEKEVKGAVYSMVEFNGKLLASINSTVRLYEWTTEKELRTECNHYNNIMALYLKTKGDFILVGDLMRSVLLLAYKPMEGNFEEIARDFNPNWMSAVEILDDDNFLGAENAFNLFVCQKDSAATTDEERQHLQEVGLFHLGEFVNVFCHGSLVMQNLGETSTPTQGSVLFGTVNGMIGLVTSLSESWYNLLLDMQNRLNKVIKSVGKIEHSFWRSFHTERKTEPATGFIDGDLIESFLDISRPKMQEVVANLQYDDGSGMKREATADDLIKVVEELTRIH
T1 sequence (Q13422 whole entry): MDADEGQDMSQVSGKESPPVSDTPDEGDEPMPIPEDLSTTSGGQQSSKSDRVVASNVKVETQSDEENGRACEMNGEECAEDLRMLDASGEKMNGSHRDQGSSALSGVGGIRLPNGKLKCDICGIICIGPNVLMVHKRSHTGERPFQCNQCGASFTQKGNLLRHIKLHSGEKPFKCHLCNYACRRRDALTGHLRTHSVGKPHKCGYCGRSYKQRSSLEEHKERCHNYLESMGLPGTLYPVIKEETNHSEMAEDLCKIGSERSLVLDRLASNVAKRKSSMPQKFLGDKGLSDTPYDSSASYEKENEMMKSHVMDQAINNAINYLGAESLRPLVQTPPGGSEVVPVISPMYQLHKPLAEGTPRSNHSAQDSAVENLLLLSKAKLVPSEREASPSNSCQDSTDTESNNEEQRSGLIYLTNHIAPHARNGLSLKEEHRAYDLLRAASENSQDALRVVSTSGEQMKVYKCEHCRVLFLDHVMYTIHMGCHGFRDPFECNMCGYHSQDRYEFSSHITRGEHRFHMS
T2 sequence (Q9UKS7 whole entry): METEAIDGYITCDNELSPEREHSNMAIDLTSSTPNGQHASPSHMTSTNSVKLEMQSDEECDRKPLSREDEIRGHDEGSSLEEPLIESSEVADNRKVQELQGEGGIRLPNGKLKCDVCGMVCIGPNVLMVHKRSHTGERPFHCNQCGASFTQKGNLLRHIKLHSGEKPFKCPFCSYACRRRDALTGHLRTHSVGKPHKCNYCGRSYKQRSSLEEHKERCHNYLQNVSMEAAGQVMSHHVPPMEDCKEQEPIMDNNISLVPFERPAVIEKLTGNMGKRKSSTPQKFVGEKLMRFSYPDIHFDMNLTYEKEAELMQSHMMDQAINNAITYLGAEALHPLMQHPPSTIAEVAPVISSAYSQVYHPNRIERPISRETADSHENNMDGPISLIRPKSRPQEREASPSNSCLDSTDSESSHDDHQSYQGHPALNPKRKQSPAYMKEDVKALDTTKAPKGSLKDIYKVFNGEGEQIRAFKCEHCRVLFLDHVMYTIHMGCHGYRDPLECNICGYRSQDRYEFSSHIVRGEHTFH
T2 sequence (Q96SW2 whole entry): as the sequence (Q96SW2 whole entry partner) above
T2 sequence (Q16531 whole entry partner): as the sequence (Q16531 whole entry partner) above

## 3-(1-oxo-5-(4-((4-(pyridin-2-yl)piperidin-1-yl)methyl)pyridin-2-yl)isoindolin-2-yl)piperidine-2,6-dione [Example 15]
Ikaros
  DC50: > 10000 nM
  Ikaros Dmax: 8%
Helios; [1]
  DC50: > 10000 nM
  Helios Dmax: 5%

## 3-(1-oxo-5-(4-((4-(pyrimidin-2-yl) piperidin-1-yl)methyl)pyridin-2-yl)isoindolin-2-yl)piperidine-2,6-dione [Example 18]
Ikaros
  DC50: > 10000 nM
  Ikaros Dmax: 19%
Helios; [1]
  DC50: > 10000 nM
  Helios Dmax: 21%

## 3-(5-(4-(((cyclobutylmethyl)(methyl)amino)methyl)pyridin-2-yl)-1-oxoisoindolin-2-yl)piperidine-2,6-dione [Example 178]
Ikaros
  DC50: > 10000 nM
  Ikaros Dmax: 15%
Helios; [1]
  DC50: 131 nM
  Helios Dmax: 82%

## O=C1CCC(N2Cc3cc(-c4cc(CN5CCC5c5ccccc5)ccn4)ccc3C2=O)C(=O)N1 (single isomer, unassigned) [Example 204, 3-(1-oxo-5-(4-((2-phenylazetidin-1-yl)methyl)pyridin-2-yl)isoindolin-2-yl)piperidine-2,6-dione]
Ikaros
  DC50: > 10000 nM
Helios; [1]
  DC50: > 10000 nM
  Helios Dmax: 2.42% and 2.4%

## O=C1CCC(N2Cc3cc(-c4cc(CN5CCC5c5ccccc5)ccn4)ccc3C2=O)C(=O)N1 (single isomer, unassigned) [Example 205, 3-(1-oxo-5-(4-((2-phenylazetidin-1-yl)methyl)pyridin-2-yl)isoindolin-2-yl)piperidine-2,6-dione]
Ikaros
  DC50: > 10000 nM
  Ikaros Dmax: 8.15% and 6%
Helios; [1]
  DC50: > 10000 nM

## CN(C)Cc1ccnc(-c2ccc3c(c2)CN(C2CCC(=O)NC2=O)C3=O)c1 (stereo not shown) [Example 1, 3-(5-{4-[(Dimethylamino)methyl]pyridin-2-yl}-1-oxo-2,3-dihydro-1H-isoindol-2-yl) piperidine-2,6-dione]
Ikaros
  DC50: > 10000 nM
  Dmax: 9%
Helios; [1]
  DC50: 25 nM
  Dmax: 84%

## O=C1CCC(N2Cc3cc(-c4cc(CNCc5ccccc5)ccn4)ccc3C2=O)C(=O)N1 (stereo not shown) [Example 2, 3-(5-(4-((benzylamino)methyl)pyridin-2-yl)-1-oxoisoindolin-2-yl)piperidine-2,6-dione]
Ikaros
  DC50: > 10000 nM
  Dmax: 16%
Helios; [1]
  DC50: 11 nM
  Dmax: 92%

## CCCN(C)Cc1ccnc(-c2ccc3c(c2)CN(C2CCC(=O)NC2=O)C3=O)c1 (stereo not shown) [Example 3, 3-(5-(4-((methyl(propyl)amino)methyl)pyridin-2-yl)-1-oxoisoindolin-2-yl)piperidine-2,6-dione]
Ikaros
  DC50: > 10000 nM
  Dmax: 3%
Helios; [1]
  DC50: 38 nM
  Dmax: 87%

## CCN(C)Cc1ccnc(-c2ccc3c(c2)CN(C2CCC(=O)NC2=O)C3=O)c1 (stereo not shown) [Example 4, 3-(5-(4-((ethyl(methyl)amino)methyl)pyridin-2-yl)-1-oxoisoindolin-2-yl)piperidine-2,6-dione]
Ikaros
  DC50: > 10000 nM
  Dmax: 8%
Helios; [1]
  DC50: 96 nM
  Dmax: 84%

## CCN(C)Cc1ccnc(-c2ccc3c(c2)CN(C2CCC(=O)NC2=O)C3=O)c1 (stereo not shown) [Example 5]
Ikaros
  DC50: > 10000 nM
  Ikaros Dmax: 5%
Helios; [1]
  DC50: 44 nM
  Helios Dmax: 90%

## CCN(C)Cc1ccnc(-c2ccc3c(c2)CN(C2CCC(=O)NC2=O)C3=O)c1 (stereo not shown) [Example 6]
Ikaros
  DC50: > 10000 nM
  Ikaros Dmax: 6%
Helios; [1]
  DC50: 28 nM
  Helios Dmax: 86%

## COCCN(C)Cc1ccnc(-c2ccc3c(c2)CN(C2CCC(=O)NC2=O)C3=O)c1 (stereo not shown) [Example 7, 3-(5-(4-(((2-methoxyethyl)(methyl)amino)methyl)pyridin-2-yl)-1-oxoisoindolin-2-yl)piperidine-2,6-dione]
Ikaros
  DC50: > 10000 nM
  Dmax: 20%
Helios; [1]
  DC50: 138 nM
  Dmax: 85%

## O=C1CCC(N2Cc3cc(-c4cc(CN5CCCC5)ccn4)ccc3C2=O)C(=O)N1 (stereo not shown) [Example 8, 3-(1-oxo-5-(4-(pyrrolidin-1-ylmethyl)pyridin-2-yl)isoindolin-2-yl)piperidine-2,6-dione]
Ikaros
  DC50: > 10000 nM
  Dmax: 18%
Helios; [1]
  DC50: 26 nM
  Dmax: 85%

## CCCCN(C)Cc1ccnc(-c2ccc3c(c2)CN(C2CCC(=O)NC2=O)C3=O)c1 (stereo not shown) [Example 9, 3-(5-(4-((butyl(methyl)amino)methyl)pyridin-2-yl)-1-oxoisoindolin-2-yl)piperidine-2,6-dione]
Ikaros
  DC50: > 10000 nM
  Dmax: 4%
Helios; [1]
  DC50: 167 nM
  Dmax: 87%

## CCCN(Cc1ccnc(-c2ccc3c(c2)CN(C2CCC(=O)NC2=O)C3=O)c1)CC1CC1 (stereo not shown) [Example 10, 3-(5-(4-(((cyclopropylmethyl)(propyl)amino)methyl)pyridin-2-yl)-1-oxoisoindolin-2-yl)piperidine-2,6-dione]
Ikaros
  DC50: > 10000 nM
  Dmax: 9%
Helios; [1]
  DC50: 183 nM
  Dmax: 67%

## O=C1CCC(N2Cc3cc(-c4cc(CN5CCC(n6c(=O)[nH]c7ccccc76)CC5)ccn4)ccc3C2=O)C(=O)N1 (stereo not shown) [Example 11, 3-(1-oxo-5-(4-((4-(2-oxo-2,3-dihydro-1H-benzo[d]imidazol-1-yl)piperidin-1-yl)methyl)pyridin-2-yl)isoindolin-2-yl)piperidine-2,6-dione]
Ikaros
  DC50: > 10000 nM
  Dmax: 7%
Helios; [1]
  DC50: 573 nM
Helios
  Dmax: 59%

## O=C1CCC(N2Cc3cc(-c4cc(CN5CCN(Cc6ccc7c(c6)OCO7)CC5)ccn4)ccc3C2=O)C(=O)N1 (stereo not shown) [Example 12, 3-(5-(4-((4-(benzo[d][1,3]dioxol-5-ylmethyl)piperazin-1-yl)methyl)pyridin-2-yl)-1-oxoisoindolin-2-yl)piperidine-2,6-dione]
Ikaros
  DC50: > 10000 nM
  Dmax: 16%
Helios; [1]
  DC50: > 10000 nM
  Dmax: 37%

## CCN(CC)C(=O)C1CCCN(Cc2ccnc(-c3ccc4c(c3)CN(C3CCC(=O)NC3=O)C4=O)c2)C1 (stereo not shown) [Example 13, 1-((2-(2-(2,6-dioxopiperidin-3-yl)-1-oxoisoindolin-5-yl)pyridin-4-yl)methyl)-N,N-diethylpiperidine-3-carboxamide]
Ikaros
  DC50: > 10000 nM
  Dmax: 8%
Helios; [1]
  DC50: 200 nM
  Dmax: 67%

## CC1CCN(Cc2ccnc(-c3ccc4c(c3)CN(C3CCC(=O)NC3=O)C4=O)c2)CC1 (stereo not shown) [Example 14, 3-(5-(4-((4-methylpiperidin-1-yl)methyl)pyridin-2-yl)-1-oxoisoindolin-2-yl)piperidine-2,6-dione]
Ikaros
  DC50: > 10000 nM
  Dmax: 16%
Helios; [1]
  DC50: 36 nM
  Dmax: 80%

## CN(CCc1ccccn1)Cc1ccnc(-c2ccc3c(c2)CN(C2CCC(=O)NC2=O)C3=O)c1 (stereo not shown) [Example 16, 3-(5-(4-((methyl(2-(pyridin-2-yl)ethyl)amino)methyl)pyridin-2-yl)-1-oxoisoindolin-2-yl) piperidine-2,6-dione]
Ikaros
  DC50: > 10000 nM
  Dmax: 12%
Helios; [1]
  DC50: 788 nM
  Dmax: 63%

## O=C1CCC(N2Cc3cc(-c4cc(CN5CCC(N6CCCCC6)CC5)ccn4)ccc3C2=O)C(=O)N1 (stereo not shown) [Example 17, 3-(5-(4-([1,4′-bipiperidin]-1′-ylmethyl)pyridin-2-yl)-1-oxoisoindolin-2-yl)piperidine-2,6-dione]
Ikaros
  DC50: > 10000 nM
  Dmax: 11%
Helios; [1]
  DC50: > 10000 nM
  Dmax: 16%

## CC(C)N(Cc1ccccc1)Cc1ccnc(-c2ccc3c(c2)CN(C2CCC(=O)NC2=O)C3=O)c1 (stereo not shown) [Example 19, 3-(5-(4-((benzyl(isopropyl)amino)methyl)pyridin-2-yl)-1-oxoisoindolin-2-yl)piperidine-2,6-dione]
Ikaros
  DC50: > 10000 nM
  Dmax: 50%
Helios; [1]
  DC50: 154 nM
  Dmax: 82%

## CC1CCCN1Cc1ccnc(-c2ccc3c(c2)CN(C2CCC(=O)NC2=O)C3=O)c1 (stereo not shown) [Example 20, 3-(5-(4-((2-methylpyrrolidin-1-yl)methyl)pyridin-2-yl)-1-oxoisoindolin-2-yl)piperidine-2,6-dione]
Ikaros
  DC50: > 10000 nM
  Dmax: 11%
Helios; [1]
  DC50: 60 nM
  Dmax: 80%

## CN(C)CCN(C)Cc1ccnc(-c2ccc3c(c2)CN(C2CCC(=O)NC2=O)C3=O)c1 (stereo not shown) [Example 21, 3-(5-(4-(((2-(dimethylamino)ethyl) (methyl)amino)methyl)pyridin-2-yl)-1-oxoisoindolin-2-yl)piperidine-2,6-dione]
Ikaros
  DC50: > 10000 nM
  Dmax: 4%
Helios; [1]
  DC50: > 10000 nM
  Dmax: 35%
